# Patent publication US8946257B2, “N-containing heteroaryl derivatives as JAK3 kinase inhibitors” (Vectura Limited, priority 2009, dated 2015)
# Where a name gives a salt, the structure may show the parent alone.
# Legend:
# [1] = target: T1, catalytic domain of human JAK2 (Homo sapiens, UniProt O60674); assay: Inhibition of JAK2 activity (Z'-Lyte Kinase Assay kit-Tyr 6 Peptide); assay type: biochemical
# T1 construct: the catalytic domain of human JAK2
# Procedure: The inhibition of JAK2 kinase activity was determined in 384-well assay microplates using the Z′-Lyte® Kinase Assay kit-Tyr 6 Peptide kit, supplied by Invitrogen (Ref: PV4122), following the manufacturer's instructions.
# (§1) In a final volume of 10 μL per well, 2.5 μL of the product to be tested dissolved in 4% DMSO (final concentration of the product to be tested, 0.1-10000 nM) was incubated with 0.5 μg/well of the catalytic domain of human JAK2, 2 μM of the substrate peptide Z′-Lyte® Tyr 6 and 16 μM of ATP; all components were dissolved in 50 mM pH 7.5 Hepes buffer, 10 mM Magnesium chloride (II), 1 mM EGTA and 0.01% Brij® 35. The reaction was started by the addition of said 16 μM ATP; after incubation for 1 hour at 25° C., 5 μL of A Z′-Lyte® Tyr 6 development reagent was added and the mixture was incubated for 1 hour at 25° C. Phosphorylation was then quantified in each well using a Safire2® fluorescence microplate reader from Tecan.
# [2] = target: catalytic domain of human JAK3 (Homo sapiens, UniProt P52333); assay: Inhibition of JAK3 activity (Z'-Lyte Kinase Assay kit-Tyr 6 Peptide); assay type: biochemical
# catalytic domain of human JAK3, sequence (P52333 781-1124 limits assumed): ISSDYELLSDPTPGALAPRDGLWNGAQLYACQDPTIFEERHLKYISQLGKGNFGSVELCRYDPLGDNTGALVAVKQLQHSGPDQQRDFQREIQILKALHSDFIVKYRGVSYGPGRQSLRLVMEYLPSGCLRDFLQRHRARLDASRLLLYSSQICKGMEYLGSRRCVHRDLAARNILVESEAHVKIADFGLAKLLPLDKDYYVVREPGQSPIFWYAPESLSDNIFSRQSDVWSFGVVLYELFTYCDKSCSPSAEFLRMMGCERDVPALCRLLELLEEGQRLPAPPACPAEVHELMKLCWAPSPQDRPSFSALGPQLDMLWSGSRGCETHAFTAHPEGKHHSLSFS
# Procedure: The inhibition of JAK3 kinase activity was determined in 384-well assay microplates using the Z′-Lyte® Kinase Assay kit-Tyr 6 Peptide kit, supplied by Invitrogan (Ref: PV4122), following the manufacturer's instructions.
# as §1, with “0.3 μg/mL” for “0.5 μg/well”, “JAK3 (amino acid sequence […]),” for “JAK2,”, “4” for “16”
# T1 sequence (O60674 849-1124 limits assumed): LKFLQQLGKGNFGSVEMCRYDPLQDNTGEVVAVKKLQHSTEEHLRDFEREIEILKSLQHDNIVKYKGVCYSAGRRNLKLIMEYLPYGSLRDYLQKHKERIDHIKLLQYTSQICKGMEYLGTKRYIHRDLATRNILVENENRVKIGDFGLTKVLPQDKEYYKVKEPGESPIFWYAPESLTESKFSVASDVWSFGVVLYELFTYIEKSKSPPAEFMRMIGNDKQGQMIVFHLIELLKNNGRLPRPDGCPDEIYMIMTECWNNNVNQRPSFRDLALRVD
inhibition at 1 µM [1] [%],inhibition at 1 µM [2] [%],SMILES
> 50,> 50,"CC(=O)N1CCC(n2c(=O)[nH]c3cnc(-c4cnn5ccc(C)cc45)nc32)CC1 [Example 1s, 9-(1-acetylpiperidin-4-yl)-2-(5-methylpyrazolo[1,5-a]pyridin-3-yl)-7H-purin-8(9H)-one]"
> 50,> 50,"N#Cc1ccn2ncc(-c3ccc4[nH]c(=O)n(C5CCOCC5)c4n3)c2c1 [Example 2, 3-(2-Oxo-3-(tetrahydro-2H-pyran-4-yl)-2,3-dihydro-1H-imidazo[4,5-b]pyridin-5-yl)pyrazolo[1,5-a]pyridine-5-carbonitrile]"
> 50,> 50,"O=c1[nH]c2ccc(-c3cnn4ccccc34)nc2n1C1CCOCC1 [Example 2e, 5-(pyrazolo[1,5-a]pyridin-3-yl)-3-(tetrahydro-2H-pyran-4-yl)-1H-imidazo[4,5-b]pyridin-2(3H)-one]"
> 50,> 50,"Cn1c(=O)n(C2CCOCC2)c2nc(-c3cnn4ccc(C#N)cc34)ncc21 [Example 4, 3-(7-Methyl-8-oxo-9-tetrahydro-2H-pyran-4-yl-8,9-dihydro-7H-purin-2yl)pyrazolo[1,5-a]pyridine-5-carbonitrile]"
> 50,> 50,"Cn1c(=O)n(C2CCOCC2)c2nc(-c3cnn4ccccc34)ccc21 [Example 5s, 1-methyl-5-(pyrazolo[1,5-a]pyridin-3-yl)-3-(tetrahydro-2H-pyran-4-yl)-1H-imidazo[4,5-b]pyridin-2(3H)-one]"
,> 50,"O=c1[nH]c2ccc(-c3cnn4ccccc34)nc2n1[C@H]1CCCNC1 [Example 6x, (S)-3-(piperidin-3-yl)-5-(pyrazolo[1,5-a]pyridin-3-yl)-1H-imidazo[4,5-b]pyridin-2(3H)-one hydrochloride]"
> 50,> 50,"Cc1nc2ccc(-c3cnn4ccc(C#N)cc34)nc2n1C1CCOCC1 [Example 20, 3-(2-Methyl-3-(tetrahydro-2H-pyran-4-yl)-3H-imidazo[4,5-b]pyridin-5-yl)pyrazolo[1,5-a]pyridine-5-carbonitrile]"
,> 50,"Cn1ccnc1-c1nc2cnc(-c3cnn4ccc(C#N)cc34)nc2n1C1CCOCC1 [Example 21, 3-(8-(1-Methyl-1H-imidazol-2-yl)-9-(tetrahydro-2H-pyran-4-yl)-9H-purin-2-yl)pyrazolo[1,5-a]pyridine-5-carbonitrile]"
> 50,> 50,"CCNc1nc2cnc(-c3cnn4ccc(C#N)cc34)nc2n1C1CCOCC1 [Example 22, 3-[8-(Ethylamino)-9-tetrahydro-2H-pyran-4-yl-9H-purin-2-yl]pyrazolo[1,5-a]pyridine-5-carbonitrile]"
> 50,> 50,"c1ccn2ncc(-c3ncc4nc(C5CCCC5)n(C5CCOCC5)c4n3)c2c1 [Example 23, 8-Cyclopentyl-2-(pyrazolo[1,5-a]pyridin-3-yl)-9-(tetrahydro-2H-pyran-4-yl)-9H-purine]"
> 50,> 50,"CC(=O)N1CCC[C@H](n2c(=O)n(C)c3ccc(-c4cnn5ccccc45)nc32)C1 [Example 24, (S)-3-(1-Acetylpiperidin-3-yl)-1-methyl-5-(pyrazolo[1,5-a]pyridin-3-yl)-1H-imidazo[4,5-b]pyridin-2(3H)-one]"
> 50,> 50,"Cn1c(=O)n([C@H]2CCCN(C(=O)C3(C#N)CC3)C2)c2nc(-c3cnn4ccccc34)ccc21 [Example 25, (S)-1-(3-(1-Methyl-2-oxo-5-(pyrazolo[1,5-a]pyridin-3-yl)-1H-imidazo[4,5-b]pyridin-3(2H)-yl)piperidine-1-carbonyl)cyclopropanecarbonitrile]"
> 50,,CC(=O)n1c(=O)n([C@H]2CCCN(C(=O)CC#N)C2)c2nc(-c3cnn4ccccc34)ncc21 [Example 26f]
> 50,,CC(=O)N1CCC[C@H](n2c(=O)n(C)c3cnc(-c4cnn5ccccc45)nc32)C1 [Example 26g]
> 50,> 50,"N#Cc1ccn2ncc(-c3ncc4[nH]c(=O)n([C@H]5CCCN(C(=O)C6(C#N)CC6)C5)c4n3)c2c1 [Example 27, (S)-3-(9-(1-(1-Cyanocyclopropanecarbonyl)piperidin-3-yl)-8-oxo-8,9-dihydro-7H-purin-2-yl)pyrazolo[1,5-a]pyridine-5-carbonitrile]"
> 50,,N#Cc1ccn2ncc(-c3ncc4[nH]c(=O)n([C@H]5CCCN(C(=O)C6(O)CC6)C5)c4n3)c2c1 [Example 27a]
,> 50,"C[C@H](CO)n1c(=O)[nH]c2cnc(-c3cnn4ccc(C#N)cc34)nc21 [Example 28, (R)-3-(9-(1-Hydroxypropan-2-yl)-8-oxo-8,9-dihydro-7H-purin-2-yl)pyrazolo[1,5-a]pyridine-5-carbonitrile]"
> 50,> 50,"Cc1ccn2ncc(-c3ncc4ncn([C@H]5CCCN(C(=O)CC#N)C5)c4n3)c2c1 [Example 29, (S)-3-(3-(2-(5-Methylpyrazolo[1,5-a]pyridin-3-yl)-9H-purin-9-yl)piperidin-1-yl)-3-oxopropanenitrile]"
> 50,> 50,"CC(=O)OCn1c(=O)n([C@H]2CCCN(C(=O)CC#N)C2)c2nc(-c3cnn4ccccc34)ncc21 [Example 31, (S)-(9-(1-(2-Cyanoacetyl)piperidin-3-yl)-8-oxo-2-(pyrazolo[1,5-a]pyridin-3-yl)-8,9-dihydro-7H-purin-7-yl)methyl acetate]"
,> 50,"C[C@H](CO)n1c(=O)n(C)c2cnc(-c3cnn4ccc(C#N)cc34)nc21 [Example 32, (R)-3-(9-(1-Hydroxypropan-2-yl)-7-methyl-8-oxo-8,9-dihydro-7H-purin-2-yl)pyrazolo[1,5-a]pyridine-5-carbonitrile]"
> 50,> 50,"Nc1nc2cnc(-c3cnn4ccccc34)nc2n1C1CCOCC1 [Example 33, 2-(Pyrazolo[1,5-a]pyridin-3-yl)-9-(tetrahydro-2H-pyran-4-yl)-9H-purin-8-amine]"
> 50,> 50,"O=C1CCCN1c1nc2cnc(-c3cnn4ccccc34)nc2n1C1CCOCC1 [Example 34, 1-(2-(Pyrazolo[1,5-a]pyridin-3-yl)-9-(tetrahydro-2H-pyran-4-yl)-9H-purin-8-yl)pyrrolidin-2-one]"
> 50,,CCC(=O)Nc1nc2cnc(-c3cnn4ccccc34)nc2n1C1CCOCC1 [Example 34b]
,> 50,"Cn1c(=O)n([C@H]2CC[C@H](O)CC2)c2nc(-c3cnn4ccc(C#N)cc34)ncc21 [Example 35, 3-(9-(trans-4-Hydroxycyclohexyl)-7-methyl-8-oxo-8,9-dihydro-7H-purin-2-yl)pyrazolo[1,5-a]pyridine-5-carbonitrile]"
,> 50,"N#Cc1ccn2ncc(-c3ncc4[nH]c(=O)n(CC(=O)NCC(F)(F)F)c4n3)c2c1 [Example 36, 2-(2-(5-Cyanopyrazolo[1,5-a]pyridin-3-yl)-8-oxo-7H-purin-9(8H)-yl)-N-(2,2,2-trifluoroethyl)acetamide]"
,> 50,"Cn1c(=O)n(C2CCOCC2)c2nc(-c3cnc4ccccn34)ncc21 [Example 37, 2-(Imidazo[1,2-a]pyridin-3-yl)-7-methyl-9-(tetrahydro-2H-pyran-4-yl)-7H-purin-8(9H)-one]"
